The text below walks through data of patent US20240270762A1, “PENICILLIN-BINDING PROTEIN INHIBITORS” (priority 2021, published 2024).

The test system of experiment [1] is N. gonorrhoeae CDC-0197. Kind of experiment: Liquid broth MIC in Fastidious broth. The conditions noted are these: Neisseria gonorrhoeae, CDC0197, read-out: Minimum Inhibitory Concentration, CDC-0197.
The subject of experiment [2] is N. gonorrhoeae MS11. Kind of experiment: Liquid broth MIC in Fastidious broth. The conditions noted are these: Neisseria gonorrhoeae, MS11, read-out: Minimum Inhibitory Concentration, MS11.
Procedure: (§1) Additional antibacterial testing of the series was performed in 8 reference strains of N. gonorrhoeae (ATCC 49226, FA1090, MS 11, WHO G, WHO L, WHO M, WHO K, WHO X, WHO Z, WHO Q, CDC-0197). ATCC 49226, FA1090, MS11, WHO G, WHO L, and WHO M produce wild type or wild-type like PBP2. WHO K, WHO X, WHO Z, WHO Q, and CDC-0197 produce mosaic PBP2. Liquid broth-based assays were used for antibacterial testing of PBP inhibitors in Neisseria gonorrhoeae. Briefly, cryo-preserved bacterial cultures of clinical strains were streaked for isolation on Chocolate Agar (72 g/L (2×) GC Agar Base (BD #228950) and 2% (2×) Hemoglobin was autoclaved at 121° C. for 20 minutes to sterilize. Once cooled to ˜50° C. the 2×GC Agar Base and 2× Hemoglobin solutions are combined and 1% IsoVitaleX Enrichment (BD #211876) was added to the solution). Strains were incubated at 36° C. and 5% CO2 to allow growth of colonies, 24 hours before inoculum preparation. 2-fold serial dilutions of test compounds were conducted in a 96 well plate with a final volume of 75 μL per well at 2-fold the final desired concentration in Fastidious broth (Remel #R07664). For preparation of assay inoculum, a direct suspension was prepared by aseptically swabbing 10-15 colonies from agar plates into culture tubes containing 2 mL of fresh sterile saline. After the dilution plates were set up, direct suspensions were then diluted in a cuvette containing sterile saline and the optical density was measured at 600 nm. Inocula were diluted such that 75 μL of this culture in Fastidious broth results in a starting bacterial concentration of 5×10^5 CFU/mL when added to the dilution plates. The plates were incubated for ˜24 hours at 36° C. and 5% CO2.
The subject of experiment [3] is N. gonorrhoeae WHO X. Put plainly: Liquid broth MIC in Fastidious broth. The settings on record: Neisseria gonorrhoeae, read-out: Minimum Inhibitory Concentration, WHO X.
For experiment [4], the system named is P. aeruginosa ATCC 35151. Put plainly: microbe, parasite or virus in culture. The experiment is classed as cell-based. The conditions noted are these: Pseudomonas aeruginosa, ATCC35151, read-out: Minimum inhibitory concentration, P. aeruginosa ATCC 35151.
Experiment [5] deals with N. gonorrhoeae FA1090. Kind of experiment: Liquid broth MIC in Fastidious broth. The settings on record: Neisseria gonorrhoeae, FA1090, read-out: Minimum Inhibitory Concentration, FA 1090.
Experiment [6] relates to P. aeruginosa ATCC 27853. Kind of experiment: microbe, parasite or virus in culture. The experiment is classed as cell-based. The conditions noted are these: Pseudomonas aeruginosa, ATCC27853, read-out: Minimum inhibitory concentration, P. aeruginosa ATCC 27853.
Experiment [7] relates to A. baumannii CDC-0033. Put plainly: microbe, parasite or virus in culture. The experiment is classed as cell-based. The settings on record: Acinetobacter baumannii, CDC0033, read-out: MIC, A. baumannii CDC-0033.
The test system of experiment [8] is N. gonorrhoeae WHO L. Put plainly: Liquid broth MIC in Fastidious broth. The conditions noted are these: Neisseria gonorrhoeae, read-out: Minimum Inhibitory Concentration, WHO L.
Experiment [9] relates to N. gonorrhoeae WHO G. Kind of experiment: Liquid broth MIC in Fastidious broth. The settings on record: Neisseria gonorrhoeae, read-out: Minimum Inhibitory Concentration, WHO G.
Procedure: as §1
Experiment [10] relates to P. aeruginosa CDC-0095. Put plainly: microbe, parasite or virus in culture. The experiment is classed as cell-based. The settings on record: Pseudomonas aeruginosa, CDC0095, read-out: Minimum inhibitory concentration, P. aeruginosa CDC-0095.
The test system of experiment [11] is N. gonorrhoeae WHO K. Kind of experiment: Liquid broth MIC in Fastidious broth. The settings on record: Neisseria gonorrhoeae, read-out: Minimum Inhibitory Concentration, WHO K.
Experiment [12] deals with B. humptydooensis ATCC BAA-2767. Kind of experiment: microbe, parasite or virus in culture. The experiment is classed as cell-based. The settings on record: Burkholderia humptydooensis, ATCCBAA2767, read-out: Minimum inhibitory concentration (MIC), B. humptydooensis ATCC BAA-2767.

Values after ≈ are worked out from the molar mass of the structure shown.

Take `O=C(NCCCN1CCN(C(=O)NC(C(=O)N[C@H]2Cc3ccc(F)c(C(=O)O)c3OB2O)c2cc(F)c(O)c(O)c2Cl)C(=O)C1=O)c1ccncc1Cl` (stereo partly drawn) [Example 295, (3R)-3-(2-(2-chloro-5-fluoro-3,4-dihydroxyphenyl)-2-(4-(3-(3-chloroisonicotinamido)propyl)-2,3-dioxopiperazine-1-carboxamido)acetamido)-7-fluoro-2-hydroxy-3,4-dihydro-2H-benzo[e][1,2]oxaborinine-8-carboxylic acid]: the MIC is > 64 µg/mL in experiment [1]; 16 to 32 µg/mL (≈ 20.5 to 41.1 µM) in [2]; > 64 µg/mL in experiment [3]; < 1 µg/mL in [4]; 1 to 2 µg/mL (≈ 1.28 to 2.57 µM) in [5]; 2 to 4 µg/mL (≈ 2.57 to 5.13 µM) in experiment [6]. Moreover, the MIC in experiment [7] is 2 to 4 µg/mL (≈ 2.57 to 5.13 µM); in [8], > 64 µg/mL; in [9], 16 to 32 µg/mL (≈ 20.5 to 41.1 µM); in experiment [10], < 1 µg/mL; in experiment [11] it was > 64 µg/mL; in experiment [12], < 1 µg/mL.
Regarding `O=C(NCCCN1CCN(C(=O)N[C@@H](C(=O)N[C@H]2Cc3ccc(F)c(C(=O)O)c3OB2O)c2cc(F)c(O)c(O)c2Cl)C(=O)C1=O)c1ccncc1O` [Example 296, (R)-3-((R)-2-(2-chloro-5-fluoro-3,4-dihydroxyphenyl)-2-(4-(3-(3-hydroxyisonicotinamido)propyl)-2,3-dioxopiperazine-1-carboxamido)acetamido)-7-fluoro-2-hydroxy-3,4-dihydro-2H-benzo[e][1,2]oxaborinine-8-carboxylic acid], the MIC was > 64 µg/mL in experiment [1]; 16 to 32 µg/mL (≈ 21 to 42.1 µM) in [2]; > 64 µg/mL in [3]; < 1 µg/mL in experiment [4]; 1 to 2 µg/mL (≈ 1.31 to 2.63 µM) in experiment [5]; < 1 µg/mL in experiment [6]. Further, the MIC is 2 to 4 µg/mL (≈ 2.63 to 5.26 µM) in experiment [7]; > 64 µg/mL in [8]; 16 to 32 µg/mL (≈ 21 to 42.1 µM) in experiment [9]; < 1 µg/mL in [10]; > 64 µg/mL in experiment [11]; 2 to 4 µg/mL (≈ 2.63 to 5.26 µM) in [12].
Turning to `Cc1cnccc1C(=O)NCCCN1CCN(C(=O)NC(C(=O)N[C@H]2Cc3ccc(F)c(C(=O)O)c3OB2O)c2cc(F)c(O)c(O)c2Cl)C(=O)C1=O` (stereo partly drawn) [Example 297, (3R)-3-(2-(2-chloro-5-fluoro-3,4-dihydroxyphenyl)-2-(4-(3-(3-methylisonicotinamido)propyl)-2,3-dioxopiperazine-1-carboxamido)acetamido)-7-fluoro-2-hydroxy-3,4-dihydro-2H-benzo[e][1,2]oxaborinine-8-carboxylic acid], the MIC in experiment [1] was > 64 µg/mL; in experiment [2] it was 16 to 32 µg/mL (≈ 21.1 to 42.2 µM); in experiment [3] it was > 64 µg/mL; in experiment [4], < 1 µg/mL; in experiment [5], 1 to 2 µg/mL (≈ 1.32 to 2.64 µM); in [6], < 1 µg/mL. The MIC in [7] is 2 to 4 µg/mL (≈ 2.64 to 5.27 µM); in [8], > 64 µg/mL; in experiment [9], 16 to 32 µg/mL (≈ 21.1 to 42.2 µM); in [10], < 1 µg/mL; in experiment [11], > 64 µg/mL; in experiment [12], < 1 µg/mL.
On to `Cc1cc(C(=O)NCCCN2CCN(C(=O)N[C@@H](C(=O)N[C@H]3Cc4ccc(F)c(C(=O)O)c4OB3O)c3cc(F)c(O)c(O)c3Cl)C(=O)C2=O)ccn1` [Example 298, (R)-3-((R)-2-(2-chloro-5-fluoro-3,4-dihydroxyphenyl)-2-(4-(3-(2-methylisonicotinamido)propyl)-2,3-dioxopiperazine-1-carboxamido)acetamido)-7-fluoro-2-hydroxy-3,4-dihydro-2H-benzo[e][1,2]oxaborinine-8-carboxylic acid], for which the MIC in experiment [1] is > 64 µg/mL; in experiment [2], 16 to 32 µg/mL (≈ 21.1 to 42.2 µM); in experiment [3], > 64 µg/mL; in experiment [4], < 1 µg/mL; in experiment [5] it was 1 to 2 µg/mL (≈ 1.32 to 2.64 µM); in experiment [6], 2 to 4 µg/mL (≈ 2.64 to 5.27 µM). The MIC in experiment [7] is 2 to 4 µg/mL (≈ 2.64 to 5.27 µM); in experiment [8] it was > 64 µg/mL; in experiment [9] it was 16 to 32 µg/mL (≈ 21.1 to 42.2 µM); in experiment [10], < 1 µg/mL; in experiment [11] it was > 64 µg/mL; in [12] it was < 1 µg/mL.
On to `O=C(NCCCN1CCN(C(=O)N[C@H](C(=O)N[C@H]2Cc3ccc(F)c(C(=O)O)c3OB2O)c2cc(F)c(O)c(O)c2Cl)C(=O)C1=O)c1ccnc(F)c1F` [Example 299, (R)-3-((S)-2-(2-chloro-5-fluoro-3,4-dihydroxyphenyl)-2-(4-(3-(2,3-difluoroisonicotinamido)propyl)-2,3-dioxopiperazine-1-carboxamido)acetamido)-7-fluoro-2-hydroxy-3,4-dihydro-2H-benzo[e][1,2]oxaborinine-8-carboxylic acid], for which the MIC in experiment [1] was > 64 µg/mL; in experiment [2] it was > 64 µg/mL; in [3] it was > 64 µg/mL; in experiment [4] it was < 1 µg/mL; in experiment [5], 16 to 32 µg/mL (≈ 20.5 to 41 µM); in experiment [6], 8 to 16 µg/mL (≈ 10.2 to 20.5 µM). The MIC in experiment [7] is 8 to 16 µg/mL (≈ 10.2 to 20.5 µM); in [8] it was > 64 µg/mL; in experiment [9], > 64 µg/mL; in experiment [10], 2 to 4 µg/mL (≈ 2.56 to 5.12 µM); in experiment [11] it was > 64 µg/mL; in experiment [12], > 128 µg/mL.
For the compound `O=C(NCCCN1CCN(C(=O)N[C@@H](C(=O)N[C@H]2Cc3ccc(F)c(C(=O)O)c3OB2O)c2cc(F)c(O)c(O)c2Cl)C(=O)C1=O)c1ccnc(F)c1F` [Example 300, (R)-3-((R)-2-(2-chloro-5-fluoro-3,4-dihydroxyphenyl)-2-(4-(3-(2,3-difluoroisonicotinamido)propyl)-2,3-dioxopiperazine-1-carboxamido)acetamido)-7-fluoro-2-hydroxy-3,4-dihydro-2H-benzo[e][1,2]oxaborinine-8-carboxylic acid], the MIC is > 64 µg/mL in [1]; 16 to 32 µg/mL (≈ 20.5 to 41 µM) in [2]; > 64 µg/mL in experiment [3]; < 1 µg/mL in experiment [4]; 4 to 8 µg/mL (≈ 5.12 to 10.2 µM) in experiment [5]; 2 to 4 µg/mL (≈ 2.56 to 5.12 µM) in experiment [6]. Moreover, the MIC in experiment [7] is 2 to 4 µg/mL (≈ 2.56 to 5.12 µM); in [8] it was > 64 µg/mL; in [9] it was 16 to 32 µg/mL (≈ 20.5 to 41 µM); in [10] it was 2 to 4 µg/mL (≈ 2.56 to 5.12 µM); in experiment [11], > 64 µg/mL; in experiment [12], < 1 µg/mL.
Turning to `Cc1cc(C(=O)NCCCN2CCN(C(=O)NC(C(=O)N[C@H]3Cc4ccc(F)c(C(=O)O)c4OB3O)c3cc(F)c(O)c(O)c3Cl)C(=O)C2=O)c(F)cn1` (stereo partly drawn) [Example 301, (3R)-3-(2-(2-chloro-5-fluoro-3,4-dihydroxyphenyl)-2-(4-(3-(5-fluoro-2-methylisonicotinamido)propyl)-2,3-dioxopiperazine-1-carboxamido)acetamido)-7-fluoro-2-hydroxy-3,4-dihydro-2H-benzo[e][1,2]oxaborinine-8-carboxylic acid], the MIC in [1] was > 64 µg/mL; in [2], 16 to 32 µg/mL (≈ 20.6 to 41.2 µM); in experiment [3] it was > 64 µg/mL; in [4] it was < 1 µg/mL; in experiment [5], 4 to 8 µg/mL (≈ 5.15 to 10.3 µM); in experiment [6], < 1 µg/mL. Besides, the MIC in experiment [7] is 2 to 4 µg/mL (≈ 2.57 to 5.15 µM); in [8], > 64 µg/mL; in experiment [9], 16 to 32 µg/mL (≈ 20.6 to 41.2 µM); in experiment [10], < 1 µg/mL; in experiment [11] it was > 64 µg/mL; in experiment [12] it was 2 to 4 µg/mL (≈ 2.57 to 5.15 µM).
In the case of `O=C(NCCCN1CCN(C(=O)N[C@H](C(=O)N[C@H]2Cc3ccc(F)c(C(=O)O)c3OB2O)c2cc(F)c(O)c(O)c2Cl)C(=O)C1=O)c1cccc(O)c1Cl` [Example 302, (R)-3-((S)-2-(4-(3-(2-chloro-3-hydroxybenzamido)propyl)-2,3-dioxopiperazine-1-carboxamido)-2-(2-chloro-5-fluoro-3,4-dihydroxyphenyl)acetamido)-7-fluoro-2-hydroxy-3,4-dihydro-2H-benzo[e][1,2]oxaborinine-8-carboxylic acid], the MIC in [1] is > 64 µg/mL; in experiment [2] it was > 64 µg/mL; in experiment [3], > 64 µg/mL; in experiment [4], 2 to 4 µg/mL (≈ 2.52 to 5.04 µM); in [5], > 64 µg/mL; in experiment [6], 32 to 64 µg/mL (≈ 40.3 to 80.6 µM). Also, the MIC is > 128 µg/mL in [7]; > 64 µg/mL in experiment [8]; > 64 µg/mL in [9]; > 128 µg/mL in experiment [10]; > 64 µg/mL in experiment [11]; > 128 µg/mL in [12].
For `O=C(NCCCN1CCN(C(=O)N[C@@H](C(=O)N[C@H]2Cc3ccc(F)c(C(=O)O)c3OB2O)c2cc(F)c(O)c(O)c2Cl)C(=O)C1=O)c1cccc(O)c1Cl` [Example 303, (R)-3-((R)-2-(4-(3-(2-chloro-3-hydroxybenzamido)propyl)-2,3-dioxopiperazine-1-carboxamido)-2-(2-chloro-5-fluoro-3,4-dihydroxyphenyl)acetamido)-7-fluoro-2-hydroxy-3,4-dihydro-2H-benzo[e][1,2]oxaborinine-8-carboxylic acid], the MIC in experiment [1] is 16 to 32 µg/mL (≈ 20.1 to 40.3 µM); in experiment [2], 4 to 8 µg/mL (≈ 5.04 to 10.1 µM); in experiment [3] it was > 64 µg/mL; in experiment [4], < 1 µg/mL; in [5] it was 1 to 2 µg/mL (≈ 1.26 to 2.52 µM); in experiment [6] it was < 1 µg/mL. For the same compound, the MIC in experiment [7] is 2 to 4 µg/mL (≈ 2.52 to 5.04 µM); in [8], > 64 µg/mL; in experiment [9] it was 4 to 8 µg/mL (≈ 5.04 to 10.1 µM); in [10], < 1 µg/mL; in experiment [11] it was > 64 µg/mL; in [12], < 1 µg/mL.
